The term Ki denotes a dissociation constant, usually derived from enzyme kinetics or from competition with a known ligand. A high value points to a looser hold on the target. By EC50 is commonly meant the concentration at which the effect is half-maximal. A lower EC50 goes with greater potency.

Like-named read-outs stand apart in the source and are kept apart here.

The target of one test is GST-Bcl-2 (Homo sapiens, UniProt P10415). In words: TR-FRET Bcl-2 binding assay (F-Bak peptide probe). To be noted: GST-Bcl-2 1 nM, F-Bak peptide probe 100 nM, Tb-anti-GST 1 nM; Wang's equation; '<' = below limit of detection. Put shortly: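 Competitive TR-FRET displacement of F-Bak peptide probe from GST-Bcl-2 detected with Tb-anti-GST antibody; compounds serially diluted in DMSO from 50 μM (2× starting concentration). Mixtures incubated 3 h at room temperature, read at 340 nm excitation with 520 and 495 nm emission. Ki derived by Wang's equation.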
Chain of GST-Bcl-2 (P10415 whole entry): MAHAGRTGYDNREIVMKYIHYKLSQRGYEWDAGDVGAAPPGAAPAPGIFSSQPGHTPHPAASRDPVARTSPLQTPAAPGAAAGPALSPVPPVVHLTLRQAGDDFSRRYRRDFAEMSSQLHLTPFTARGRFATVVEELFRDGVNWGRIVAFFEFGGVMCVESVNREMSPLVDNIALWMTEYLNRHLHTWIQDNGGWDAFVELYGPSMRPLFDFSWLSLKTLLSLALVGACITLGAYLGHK
(TR-FRET usually uses a lanthanide donor and a delayed reading to cut background.)

In a further test the test system is RS4;11 cells. In words: RS4;11 cell viability assay (CellTiter Glo). It counts as cell-based. To be noted: 10% human serum, 48 hours. The procedure, abridged: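 Cells seeded at 50,000 per well and exposed to compounds for 48 h at 37 C, 5% CO2 in the presence of 10% human serum. Viability read by CellTiter Glo; EC50 derived from percentage of viable cells versus untreated controls.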
In general terms: ATP-based viability assays read luminescence as a measure of living cells.

The test system of another test is lymphocytes. In words: Lymphocyte reduction in C57BL/6 mice. It is filed as in vivo. The note with it: Mus musculus, ip. The procedure, abridged: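 C57Bl/6 mice dosed intraperitoneally at 30 mg/kg daily for four days. Blood cell counts by hematology analyzer 24 hours after first and last doses; exposure (AUC) from samples at 1, 6, 10 and 24 hours after last dose.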

[1] abbreviates: 30 mg/kg intraperitoneal every day for four days, 24 hours after the last dose, read-out: Lymphocyte reduction % inh. day 4.
The mark [2] stands for this setting: 30 mg/kg intraperitoneal every day, 24 hours after the first dose, read-out: Lymphocyte reduction % inh. day 1.

As for `CC(C)(O)CCNc1ccc(S(=O)(=O)NC(=O)c2ccc(N3CCN(CC4=C(c5ccc(Cl)cc5)CC(C)(C)CC4)CC3)cc2Oc2cnc3[nH]ccc3c2)cc1[N+](=O)[O-]` [Example 12, 4-(4-{[2-(4-chlorophenyl)-4,4-dimethylcyclohex-1-en-1-yl]methyl}piperazin-1-yl)-N-({4-[(3-hydroxy-3-methylbutyl)amino]-3-nitrophenyl}sulfonyl)-2-(1H-pyrrolo[2,3-b]pyridin-5-yloxy)benzamide], at GST-Bcl-2, the Ki is below 0.1 nM. The same compound registered an EC50 with RS4;11 cells of 30 nM. Also, the inhibition at 30 mg/kg in the test on lymphocytes (setting [1]) was determined as 27%; in the test with lymphocytes (setting [2]), 41%.
Taken in the same sequence, the figures for `CC1(C)CCC(CN2CCN(c3ccc(C(=O)NS(=O)(=O)c4ccc(NC[C@@H]5[C@H]6COC[C@@H]56)c([N+](=O)[O-])c4)c(Oc4cnc5[nH]ccc5c4)c3)CC2)=C(c2ccc(Cl)cc2)C1` [Example 14, 4-(4-{[2-(4-chlorophenyl)-4,4-dimethylcyclohex-1-en-1-yl]methyl}piperazin-1-yl)-N-[(3-nitro-4-{[(1R,5S,6S)-3-oxabicyclo[3.1.0]hex-6-ylmethyl]amino}phenyl)sulfonyl]-2-(1H-pyrrolo[2,3-b]pyridin-5-yloxy)benzamide] were below 0.1 nM, 10 nM, 54% and 61%.
Taken in the same sequence, the figures for `CC1(C)CCC(CN2CCN(c3ccc(C(=O)NS(=O)(=O)c4ccc(NCC5CCSCC5)c([N+](=O)[O-])c4)c(Oc4cnc5[nH]ccc5c4)c3)CC2)=C(c2ccc(Cl)cc2)C1` [Example 22, 4-(4-{[2-(4-chlorophenyl)-4,4-dimethylcyclohex-1-en-1-yl]methyl}piperazin-1-yl)-N-({3-nitro-4-[(tetrahydro-2H-thiopyran-4-ylmethyl)amino]phenyl}sulfonyl)-2-(1H-pyrrolo[2,3-b]pyridin-5-yloxy)benzamide] were below 0.1 nM, 28 nM, 44% and 40%.
Regarding `CC1(C)CCC(CN2CCN(c3ccc(C(=O)NS(=O)(=O)c4ccc(NCC5(O)COCCOC5)c([N+](=O)[O-])c4)c(Oc4cnc5[nH]ccc5c4)c3)CC2)=C(c2ccc(Cl)cc2)C1` [Example 25, 4-(4-{[2-(4-chlorophenyl)-4,4-dimethylcyclohex-1-en-1-yl]methyl}piperazin-1-yl)-N-[(4-{[(6-hydroxy-1,4-dioxepan-6-yl)methyl]amino}-3-nitrophenyl)sulfonyl]-2-(1H-pyrrolo[2,3-b]pyridin-5-yloxy)benzamide], the Ki on GST-Bcl-2 was below 0.1 nM. The compound also yielded an EC50 in the test on RS4;11 cells of 36 nM. The inhibition at 30 mg/kg in the test on lymphocytes (setting [1]) stood at 15%; in the test with lymphocytes (setting [2]), 29%.
Turning to `C[C@@H]1C[C@H](CNc2ccc(S(=O)(=O)NC(=O)c3ccc(N4CCN(CC5=C(c6ccc(Cl)cc6)CC(C)(C)CC5)CC4)cc3Oc3cnc4[nH]ccc4c3)cc2[N+](=O)[O-])C[C@H](C)O1` [Example 31, 4-(4-{[2-(4-chlorophenyl)-4,4-dimethylcyclohex-1-en-1-yl]methyl}piperazin-1-yl)-N-{[4-({[(2R,4R,6S)-2,6-dimethyltetrahydro-2H-pyran-4-yl]methyl}amino)-3-nitrophenyl]sulfonyl}-2-(1H-pyrrolo[2,3-b]pyridin-5-yloxy)benzamide], the Ki at GST-Bcl-2 is below 0.1 nM. Also, the midpoint of the response in the test with RS4;11 cells, the EC50, lay at 16 nM. Also, the inhibition at 30 mg/kg stood at 55% with lymphocytes (setting [1]) and 53% with lymphocytes (setting [2]).
Taken in the same sequence, the figures for `CC1(C)CCC(CN2CCN(c3ccc(C(=O)NS(=O)(=O)c4ccc(NNC5CCOCC5)c([N+](=O)[O-])c4)c(Oc4cnc5[nH]ccc5c4)c3)CC2)=C(c2ccc(Cl)cc2)C1` [Example 18, 4-(4-{[2-(4-chlorophenyl)-4,4-dimethylcyclohex-1-en-1-yl]methyl}piperazin-1-yl)-N-({3-nitro-4-[2-(tetrahydro-2H-pyran-4-yl)hydrazinyl]phenyl}sulfonyl)-2-(1H-pyrrolo[2,3-b]pyridin-5-yloxy)benzamide] were below 0.1 nM, 47 nM, 25% and below 15%.
Taken in the same sequence, the figures for `CC1(C)CCC(CN2CCN(c3ccc(C(=O)NS(=O)(=O)c4ccc(NC[C@H]5CC[C@@]6(CCCO6)CC5)c([N+](=O)[O-])c4)c(Oc4cnc5[nH]ccc5c4)c3)CC2)=C(c2ccc(Cl)cc2)C1` [Example 5, 4-(4-{[2-(4-chlorophenyl)-4,4-dimethylcyclohex-1-en-1-yl]methyl}piperazin-1-yl)-N-[(3-nitro-4-{[(5R,8R)-1-oxaspiro[4.5]dec-8-ylmethyl]amino}phenyl)sulfonyl]-2-(1H-pyrrolo[2,3-b]pyridin-5-yloxy)benzamide] were below 0.1 nM, 5.2 nM, 45% and 47%.
On to `CC1(C)CCC(CN2CCN(c3ccc(C(=O)NS(=O)(=O)c4ccc(NCC5(O)CCOCC5)c([N+](=O)[O-])c4)c(Oc4cnc5[nH]ccc5c4)c3)CC2)=C(c2ccc(Cl)cc2)C1` [Example 6, 4-(4-{[2-(4-chlorophenyl)-4,4-dimethylcyclohex-1-en-1-yl]methyl}piperazin-1-yl)-N-[(4-{[(4-hydroxytetrahydro-2H-pyran-4-yl)methyl]amino}-3-nitrophenyl)sulfonyl]-2-(1H-pyrrolo[2,3-b]pyridin-5-yloxy)benzamide], for which the Ki at GST-Bcl-2 is below 0.1 nM. In the test on RS4;11 cells, the EC50 turned out to be 7.6 nM. Further, the results for the inhibition at 30 mg/kg in the test on lymphocytes (setting [1]) and in the test with lymphocytes (setting [2]) were 24% and below 15%, respectively.
Taken in the same sequence, the figures for `C[C@@H]1CO[C@@H](CNc2ccc(S(=O)(=O)NC(=O)c3ccc(N4CCN(CC5=C(c6ccc(Cl)cc6)CC(C)(C)CC5)CC4)cc3Oc3cnc4[nH]ccc4c3)cc2[N+](=O)[O-])CO1` [Example 44, 4-(4-{[2-(4-chlorophenyl)-4,4-dimethylcyclohex-1-en-1-yl]methyl}piperazin-1-yl)-N-{[4-({[(2S,5R)-5-methyl-1,4-dioxan-2-yl]methyl}amino)-3-nitrophenyl]sulfonyl}-2-(1H-pyrrolo[2,3-b]pyridin-5-yloxy)benzamide] were below 0.1 nM, 4.7 nM, 60% and 66%.
Taken in the same sequence, the figures for `CC1(C)CCC(CN2CCN(c3ccc(C(=O)NS(=O)(=O)c4ccc(NCC5(O)CCC(F)(F)CC5)c([N+](=O)[O-])c4)c(Oc4cnc5[nH]ccc5c4)c3)CC2)=C(c2ccc(Cl)cc2)C1` [Example 26, 4-(4-{[2-(4-chlorophenyl)-4,4-dimethylcyclohex-1-en-1-yl]methyl}piperazin-1-yl)-N-[(4-{[(4,4-difluoro-1-hydroxycyclohexyl)methyl]amino}-3-nitrophenyl)sulfonyl]-2-(1H-pyrrolo[2,3-b]pyridin-5-yloxy)benzamide] were below 0.1 nM, 44 nM, 23% and 38%.
Consider `CC1(C)CCC(CN2CCN(c3ccc(C(=O)NS(=O)(=O)c4ccc(NCC5(O)COC5)c([N+](=O)[O-])c4)c(Oc4cnc5[nH]ccc5c4)c3)CC2)=C(c2ccc(Cl)cc2)C1` [Example 15, 4-(4-{[2-(4-chlorophenyl)-4,4-dimethylcyclohex-1-en-1-yl]methyl}piperazin-1-yl)-N-[(4-{[(3-hydroxyoxetan-3-yl)methyl]amino}-3-nitrophenyl)sulfonyl]-2-(1H-pyrrolo[2,3-b]pyridin-5-yloxy)benzamide], for which the Ki on GST-Bcl-2 was below 0.1 nM. The EC50 with RS4;11 cells was 9.3 nM. Moreover, the inhibition at 30 mg/kg in the test with lymphocytes (setting [1]) and in the test with lymphocytes (setting [2]) was below 15% throughout.
On GST-Bcl-2, `COC1(CNc2ccc(S(=O)(=O)NC(=O)c3ccc(N4CCN(CC5=C(c6ccc(Cl)cc6)CC(C)(C)CC5)CC4)cc3Oc3cnc4[nH]ccc4c3)cc2[N+](=O)[O-])CCOCC1` [Example 27, 4-(4-{[2-(4-chlorophenyl)-4,4-dimethylcyclohex-1-en-1-yl]methyl}piperazin-1-yl)-N-[(4-{[(4-methoxytetrahydro-2H-pyran-4-yl)methyl]amino}-3-nitrophenyl)sulfonyl]-2-(1H-pyrrolo[2,3-b]pyridin-5-yloxy)benzamide] came in with a Ki below 0.1 nM. The compound further displayed an EC50 in the test with RS4;11 cells of 97 nM. In addition, the values for the inhibition at 30 mg/kg with lymphocytes (setting [1]) and in the test on lymphocytes (setting [2]) were 21% and 23%, respectively.
Taken in the same sequence, the figures for `CC1(C)CCC(CN2CCN(c3ccc(C(=O)NS(=O)(=O)c4ccc(NCC5(CO)CCOCC5)c([N+](=O)[O-])c4)c(Oc4cnc5[nH]ccc5c4)c3)CC2)=C(c2ccc(Cl)cc2)C1` [Example 10, 4-(4-{[2-(4-chlorophenyl)-4,4-dimethylcyclohex-1-en-1-yl]methyl}piperazin-1-yl)-N-{[4-({[4-(hydroxymethyl)tetrahydro-2H-pyran-4-yl]methyl}amino)-3-nitrophenyl]sulfonyl}-2-(1H-pyrrolo[2,3-b]pyridin-5-yloxy)benzamide] were below 0.1 nM, 8.1 nM, below 15% and below 15%.

Values taken from US10081628B2, “Apoptosis-inducing agents for the treatment of cancer and immune and autoimmune diseases” (AbbVie Inc., priority 2013, dated 2018).
